Measured values reported in publication PMC9841523 (Journal of Medicinal Chemistry, 2022).

Tests used:
Test in all cases: KiNativ kinase panel
CDK2 = target: T1, CDK2 (Homo sapiens, UniProt P24941); assay type: cell-based; conditions: 1 μM, MCF-7 Cells
T1 construct: purchased ActivX Biosciences (KiNativ)

MAST1, MAST2 = assay type: cell-based, human; conditions: 1 μM, MCF-7 Cells, Lys2
SMG1 = target: T2, SMG1 (Homo sapiens, UniProt Q96Q15); assay type: cell-based; conditions: 1 μM, MCF-7 Cells, ATP
T2 construct: endogenous in cells; host or cells: MCF7

EGFR = target: T3, EGFR (Homo sapiens, UniProt P00533); assay type: cell-based; conditions: 1 μM, MCF-7 Cells
T3 construct: MCF7 cells were exposed to; endogenous in cells; host or cells: MCF7
T3 sequence (P00533 25-1210): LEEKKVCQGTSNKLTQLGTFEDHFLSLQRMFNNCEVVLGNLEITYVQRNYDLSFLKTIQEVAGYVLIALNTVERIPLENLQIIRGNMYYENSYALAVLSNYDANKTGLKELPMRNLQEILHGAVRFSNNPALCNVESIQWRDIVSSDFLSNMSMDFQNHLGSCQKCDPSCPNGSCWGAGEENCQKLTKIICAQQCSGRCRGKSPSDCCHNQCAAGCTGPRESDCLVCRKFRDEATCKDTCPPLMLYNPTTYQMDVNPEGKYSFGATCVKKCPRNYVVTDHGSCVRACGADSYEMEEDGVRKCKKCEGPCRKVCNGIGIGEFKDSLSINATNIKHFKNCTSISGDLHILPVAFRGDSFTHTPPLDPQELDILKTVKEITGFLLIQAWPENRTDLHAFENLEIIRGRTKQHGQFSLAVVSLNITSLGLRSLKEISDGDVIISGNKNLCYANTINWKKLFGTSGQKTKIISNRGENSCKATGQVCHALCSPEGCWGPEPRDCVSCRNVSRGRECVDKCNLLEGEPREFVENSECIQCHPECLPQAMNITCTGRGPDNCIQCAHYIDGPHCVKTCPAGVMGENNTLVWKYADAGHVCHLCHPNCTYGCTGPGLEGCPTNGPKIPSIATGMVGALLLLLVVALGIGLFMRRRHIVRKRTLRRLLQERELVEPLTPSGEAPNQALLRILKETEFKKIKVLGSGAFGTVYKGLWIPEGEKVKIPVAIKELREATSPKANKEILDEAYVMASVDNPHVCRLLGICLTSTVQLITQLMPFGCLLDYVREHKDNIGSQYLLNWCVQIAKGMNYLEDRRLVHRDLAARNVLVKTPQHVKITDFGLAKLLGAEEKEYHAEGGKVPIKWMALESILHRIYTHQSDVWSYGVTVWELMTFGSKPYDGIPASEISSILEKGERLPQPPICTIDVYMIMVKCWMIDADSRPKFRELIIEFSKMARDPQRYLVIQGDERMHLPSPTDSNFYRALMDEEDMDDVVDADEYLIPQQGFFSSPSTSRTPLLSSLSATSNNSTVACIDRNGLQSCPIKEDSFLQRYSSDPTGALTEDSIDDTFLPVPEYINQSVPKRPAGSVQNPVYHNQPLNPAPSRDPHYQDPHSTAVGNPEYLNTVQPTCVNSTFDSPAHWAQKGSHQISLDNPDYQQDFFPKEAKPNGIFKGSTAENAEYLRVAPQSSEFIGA

ULK1 = target: T4, ULK1 (Homo sapiens, UniProt O75385); assay type: cell-based; conditions: 1 μM; MCF-7 Cells; Lys2; DLKPQNILLSNPAGR
T4 construct: Briefly, MCF7 cells were exposed to; endogenous in cells; host or cells: MCF7
T4 sequence (O75385 whole entry): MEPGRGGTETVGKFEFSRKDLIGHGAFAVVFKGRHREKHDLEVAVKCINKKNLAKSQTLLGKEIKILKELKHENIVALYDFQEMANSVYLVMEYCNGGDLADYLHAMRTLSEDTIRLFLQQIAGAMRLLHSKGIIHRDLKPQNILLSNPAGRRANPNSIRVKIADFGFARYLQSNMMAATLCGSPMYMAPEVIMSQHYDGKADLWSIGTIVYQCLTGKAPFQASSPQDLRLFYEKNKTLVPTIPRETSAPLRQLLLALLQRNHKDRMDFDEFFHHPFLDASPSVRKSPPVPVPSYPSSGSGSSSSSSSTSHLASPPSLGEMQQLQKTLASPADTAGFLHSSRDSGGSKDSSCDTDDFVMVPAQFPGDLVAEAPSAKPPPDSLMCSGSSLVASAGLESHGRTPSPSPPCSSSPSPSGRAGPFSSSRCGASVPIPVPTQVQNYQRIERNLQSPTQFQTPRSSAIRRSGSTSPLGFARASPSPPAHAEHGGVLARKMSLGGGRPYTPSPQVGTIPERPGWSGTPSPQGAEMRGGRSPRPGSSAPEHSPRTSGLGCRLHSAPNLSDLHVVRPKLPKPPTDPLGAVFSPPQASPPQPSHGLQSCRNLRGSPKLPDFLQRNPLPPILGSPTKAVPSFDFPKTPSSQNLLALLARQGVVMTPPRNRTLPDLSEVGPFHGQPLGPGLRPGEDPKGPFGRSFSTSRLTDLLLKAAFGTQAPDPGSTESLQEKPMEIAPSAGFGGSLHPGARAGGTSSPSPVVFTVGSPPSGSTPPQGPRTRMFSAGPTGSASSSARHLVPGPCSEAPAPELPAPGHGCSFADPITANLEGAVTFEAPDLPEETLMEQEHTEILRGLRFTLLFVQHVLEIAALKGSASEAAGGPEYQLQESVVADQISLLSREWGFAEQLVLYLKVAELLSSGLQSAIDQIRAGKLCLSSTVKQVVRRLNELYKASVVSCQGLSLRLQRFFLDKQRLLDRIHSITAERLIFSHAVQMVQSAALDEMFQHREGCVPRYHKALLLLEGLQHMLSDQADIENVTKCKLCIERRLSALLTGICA

MAP3K15, MAP3K5, MAP3K6 = assay type: cell-based, human; conditions: 1 μM; MCF-7 Cells; Lys1; IAIKEIPER
KSR1, KSR2 = assay type: cell-based, human; conditions: 1 μM, MCF-7 Cells, Activation Loop
MST3 = target: T5, MST3 (Homo sapiens, UniProt Q9Y6E0); assay type: cell-based; conditions: 1 μM; MCF-7 Cells; Lys2; DIKAANVLLSEHGEVK
T5 construct: purchased ActivX Biosciences (KiNativ)
T5 sequence (Q9Y6E0 whole entry): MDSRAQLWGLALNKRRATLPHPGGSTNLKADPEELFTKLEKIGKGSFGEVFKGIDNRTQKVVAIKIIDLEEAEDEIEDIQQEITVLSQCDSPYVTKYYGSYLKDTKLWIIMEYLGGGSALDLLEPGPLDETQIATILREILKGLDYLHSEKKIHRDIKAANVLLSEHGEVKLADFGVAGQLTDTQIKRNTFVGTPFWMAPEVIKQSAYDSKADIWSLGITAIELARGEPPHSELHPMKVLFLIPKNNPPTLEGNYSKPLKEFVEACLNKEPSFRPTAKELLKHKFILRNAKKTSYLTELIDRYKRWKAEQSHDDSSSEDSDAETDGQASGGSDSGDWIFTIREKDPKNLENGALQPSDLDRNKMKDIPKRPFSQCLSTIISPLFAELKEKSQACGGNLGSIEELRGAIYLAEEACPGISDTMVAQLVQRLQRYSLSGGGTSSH

PKR = target: T6, PKR (Homo sapiens, UniProt P19525); assay type: cell-based; conditions: 1 μM, MCF-7 Cells
T6 construct: MCF7 cells were exposed to; endogenous in cells; host or cells: MCF7
T6 sequence (P19525 whole entry): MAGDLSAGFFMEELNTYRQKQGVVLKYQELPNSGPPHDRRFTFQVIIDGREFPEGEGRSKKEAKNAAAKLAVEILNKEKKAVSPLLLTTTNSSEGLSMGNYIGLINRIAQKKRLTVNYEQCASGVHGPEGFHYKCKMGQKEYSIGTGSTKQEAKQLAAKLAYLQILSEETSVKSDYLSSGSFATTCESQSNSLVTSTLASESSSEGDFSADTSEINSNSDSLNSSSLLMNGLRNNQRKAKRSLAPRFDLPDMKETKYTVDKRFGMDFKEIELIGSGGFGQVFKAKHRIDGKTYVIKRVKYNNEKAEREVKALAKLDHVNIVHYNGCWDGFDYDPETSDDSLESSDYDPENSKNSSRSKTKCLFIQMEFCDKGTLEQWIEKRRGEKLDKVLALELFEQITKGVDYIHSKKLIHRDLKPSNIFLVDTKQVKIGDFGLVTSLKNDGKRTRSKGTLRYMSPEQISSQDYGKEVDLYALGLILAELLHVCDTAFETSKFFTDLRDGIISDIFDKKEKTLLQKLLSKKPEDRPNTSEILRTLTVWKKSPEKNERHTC

TYK2_Domain2 domain2 = target: T7, TYK2_Domain2 domain2 (Homo sapiens, UniProt P29597); assay type: cell-based; conditions: 1 μM; MCF-7 Cells; Activation Loop; IGDFGLAKAVPEGHEYYR
T7 construct: Briefly, MCF7 cells were exposed to; endogenous in cells; host or cells: MCF7

NDR1, NDR2 = assay type: cell-based, human; conditions: 1 μM; MCF-7 Cells; Activation Loop; LSDFGLCTGLKK
AMPKa1, AMPKa2 = assay type: cell-based, human; conditions: 1 μM, MCF-7 Cells
p38d, p38g = assay type: cell-based, human; conditions: 1 μM, MCF-7 Cells, Lys2
LOK = target: T8, LOK (Homo sapiens, UniProt O94804); assay type: cell-based; conditions: 1 μM; MCF-7 Cells; Lys2; DLKAGNVLMTLEGDIR
T8 construct: endogenous in cells; host or cells: MCF7
T8 sequence (O94804 whole entry): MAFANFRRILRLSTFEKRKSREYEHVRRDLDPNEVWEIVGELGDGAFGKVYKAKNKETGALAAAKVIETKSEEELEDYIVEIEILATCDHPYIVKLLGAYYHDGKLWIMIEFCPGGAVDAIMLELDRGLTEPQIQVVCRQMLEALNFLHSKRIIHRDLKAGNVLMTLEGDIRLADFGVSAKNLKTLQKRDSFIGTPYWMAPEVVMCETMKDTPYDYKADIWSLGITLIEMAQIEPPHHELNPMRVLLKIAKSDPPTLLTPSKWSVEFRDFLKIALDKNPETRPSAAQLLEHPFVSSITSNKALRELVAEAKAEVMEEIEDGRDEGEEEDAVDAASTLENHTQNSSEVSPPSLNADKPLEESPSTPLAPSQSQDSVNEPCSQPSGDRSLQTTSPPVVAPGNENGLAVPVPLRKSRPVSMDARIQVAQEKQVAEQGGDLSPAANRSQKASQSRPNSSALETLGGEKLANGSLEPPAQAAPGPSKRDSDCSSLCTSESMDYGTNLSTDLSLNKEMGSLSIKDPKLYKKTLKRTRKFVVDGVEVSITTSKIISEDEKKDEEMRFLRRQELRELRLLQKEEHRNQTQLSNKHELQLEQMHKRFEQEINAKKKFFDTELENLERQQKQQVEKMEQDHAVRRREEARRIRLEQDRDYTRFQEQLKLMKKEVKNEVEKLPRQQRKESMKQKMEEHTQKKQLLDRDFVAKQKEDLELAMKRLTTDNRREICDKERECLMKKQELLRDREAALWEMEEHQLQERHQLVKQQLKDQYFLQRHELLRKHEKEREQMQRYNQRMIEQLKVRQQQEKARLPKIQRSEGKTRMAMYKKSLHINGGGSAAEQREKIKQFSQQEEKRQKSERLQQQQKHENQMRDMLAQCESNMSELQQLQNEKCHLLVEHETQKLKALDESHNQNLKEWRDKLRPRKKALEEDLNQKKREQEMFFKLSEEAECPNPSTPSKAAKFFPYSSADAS

MARK4 = target: T9, MARK4 (Homo sapiens, UniProt Q96L34); assay type: cell-based; conditions: 1 μM, MCF-7 Cells
T9 construct: purchased ActivX Biosciences (KiNativ)
T9 sequence (Q96L34 1-752): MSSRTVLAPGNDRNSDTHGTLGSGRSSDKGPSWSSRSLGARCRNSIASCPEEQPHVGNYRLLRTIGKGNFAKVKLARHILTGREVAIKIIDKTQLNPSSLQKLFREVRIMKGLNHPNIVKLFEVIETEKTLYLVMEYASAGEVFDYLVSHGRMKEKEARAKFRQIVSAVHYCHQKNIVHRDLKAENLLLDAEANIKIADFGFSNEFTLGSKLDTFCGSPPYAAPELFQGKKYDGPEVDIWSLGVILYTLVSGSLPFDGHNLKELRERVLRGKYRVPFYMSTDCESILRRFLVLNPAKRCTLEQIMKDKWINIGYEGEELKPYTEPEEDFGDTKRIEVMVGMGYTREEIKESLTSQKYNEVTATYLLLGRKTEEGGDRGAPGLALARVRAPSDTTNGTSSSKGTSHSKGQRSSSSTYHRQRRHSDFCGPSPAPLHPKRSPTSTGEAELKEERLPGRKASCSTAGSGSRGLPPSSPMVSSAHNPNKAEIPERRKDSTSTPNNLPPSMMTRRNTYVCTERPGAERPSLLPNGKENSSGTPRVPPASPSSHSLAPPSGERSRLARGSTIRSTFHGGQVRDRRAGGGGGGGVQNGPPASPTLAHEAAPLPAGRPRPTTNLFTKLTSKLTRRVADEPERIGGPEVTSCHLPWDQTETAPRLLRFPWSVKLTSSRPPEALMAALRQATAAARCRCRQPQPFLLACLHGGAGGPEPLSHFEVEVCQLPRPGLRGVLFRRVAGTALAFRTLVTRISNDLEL

MAP3K2, MAP3K3 = assay type: cell-based, human; conditions: 1 μM; MCF-7 Cells; Lys2; DIKGANILR
PKCa, PKCg = assay type: cell-based, human; conditions: 1 μM, MCF-7 Cells, Other
DLK = target: T10, DLK (Homo sapiens, UniProt Q12852); assay type: cell-based; conditions: 1 μM; MCF-7 Cells; Lys2; DLKSPNMLITYDDVVK
T10 construct: endogenous in cells; host or cells: MCF7
T10 sequence (Q12852 whole entry): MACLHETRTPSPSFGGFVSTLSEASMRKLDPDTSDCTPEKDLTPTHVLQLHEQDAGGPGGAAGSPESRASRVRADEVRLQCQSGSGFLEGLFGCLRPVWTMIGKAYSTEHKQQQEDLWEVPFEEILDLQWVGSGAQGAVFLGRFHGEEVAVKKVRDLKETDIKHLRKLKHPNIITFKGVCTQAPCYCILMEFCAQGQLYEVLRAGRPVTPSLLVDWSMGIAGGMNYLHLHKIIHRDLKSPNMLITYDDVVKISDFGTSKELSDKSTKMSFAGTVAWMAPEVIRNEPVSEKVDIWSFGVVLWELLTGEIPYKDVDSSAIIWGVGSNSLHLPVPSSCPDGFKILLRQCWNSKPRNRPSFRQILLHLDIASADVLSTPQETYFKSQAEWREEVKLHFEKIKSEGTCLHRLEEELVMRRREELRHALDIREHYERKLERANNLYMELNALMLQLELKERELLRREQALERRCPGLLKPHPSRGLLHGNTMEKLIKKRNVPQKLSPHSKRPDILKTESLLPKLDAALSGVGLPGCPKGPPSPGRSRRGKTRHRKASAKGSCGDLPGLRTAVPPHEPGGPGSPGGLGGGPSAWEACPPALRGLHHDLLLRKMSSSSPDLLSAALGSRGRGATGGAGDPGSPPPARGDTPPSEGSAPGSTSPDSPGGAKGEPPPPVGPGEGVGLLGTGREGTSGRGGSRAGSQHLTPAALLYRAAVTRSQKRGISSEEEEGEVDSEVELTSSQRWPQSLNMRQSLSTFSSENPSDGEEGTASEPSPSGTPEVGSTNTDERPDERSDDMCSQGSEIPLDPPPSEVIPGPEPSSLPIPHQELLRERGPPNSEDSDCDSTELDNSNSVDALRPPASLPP

ITPK1 = target: T11, ITPK1 (Homo sapiens, UniProt Q13572); assay type: cell-based; conditions: 1 μM, MCF-7 Cells, ATP
T11 construct: endogenous in cells; host or cells: MCF7
T11 sequence (Q13572 1-414): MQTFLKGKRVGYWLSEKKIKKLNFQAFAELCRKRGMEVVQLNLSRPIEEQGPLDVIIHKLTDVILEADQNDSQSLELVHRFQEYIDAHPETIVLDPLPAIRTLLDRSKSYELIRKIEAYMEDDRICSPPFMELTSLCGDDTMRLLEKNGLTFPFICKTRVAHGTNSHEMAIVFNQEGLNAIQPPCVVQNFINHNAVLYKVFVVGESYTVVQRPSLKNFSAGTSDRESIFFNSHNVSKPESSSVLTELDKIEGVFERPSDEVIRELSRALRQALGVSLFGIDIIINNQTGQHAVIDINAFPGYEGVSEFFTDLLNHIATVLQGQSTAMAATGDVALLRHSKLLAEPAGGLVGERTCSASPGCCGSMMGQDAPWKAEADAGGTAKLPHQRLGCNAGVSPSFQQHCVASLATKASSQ

[1] = Activation Loop, IGDFGLVTSLKNDGKR
[2] = ESIFFNSHNVSKPESSSVLTELDKIEGVFERPSDEVIR

SMILES | KiNativ Kinase Panel Data (CDK2; Lys1, LTGEVVALKK) | KiNativ Kinase Panel Data (CDK2; Lys2, DLKPQNLLINTEGAIK) | KiNativ Kinase Panel Data (SMG1; DTVTIHSVGGTITILPTKTKPK) | KiNativ Kinase Panel Data (SMG1; SYPYLFKGLEDLHLDER) | KiNativ Kinase Panel Data (EGFR; Lys1, IPVAIKELR) | KiNativ Kinase Panel Data (ULK1) | KiNativ Kinase Panel Data (MAP3K15, MAP3K5, MAP3K6) | KiNativ Kinase Panel Data (MST3) | KiNativ Kinase Panel Data (PKR; [1]) | KiNativ Kinase Panel Data (PKR; Lys1, TYVIKR) | KiNativ Kinase Panel Data (PKR; Lys2, DLKPSNIFLVDTK) | KiNativ Kinase Panel Data (TYK2_Domain2 domain2) | KiNativ Kinase Panel Data (NDR1, NDR2) | KiNativ Kinase Panel Data (AMPKa1, AMPKa2; Lys1, VAVKILNR) | KiNativ Kinase Panel Data (LOK) | KiNativ Kinase Panel Data (MARK4; Lys2, DLKAENLLLDAEANIK) | KiNativ Kinase Panel Data (MAP3K2, MAP3K3) | KiNativ Kinase Panel Data (DLK) | KiNativ Kinase Panel Data (ITPK1; [2]) | other results
CO[C@H]1C[C@@H]2CC[C@@H](C)[C@@](O)(O2)C(=O)C(=O)N2CCCC[C@H]2C(=O)O[C@H]([C@H](C)C[C@@H]2CC[C@@H](OC(=O)NCCOCCOCCOCCOCCOCCOCCOCCOCCC(=O)N3CCc4cc(Cn5nc(-c6ccc7oc(N)nc7c6)c6c(N)ncnc65)ccc4C3)[C@H](OC)C2)C[C@@H](O)[C@H](C)/C=C(\C)[C@@H](O)[C@@H](OC)C(=O)[C@H](C)C[C@H](C)/C=C/C=C/C=C/1C [compound 38] | 1.0 | 13.1 | 0.8 | 21.6 | -7.4 | -11.7 | 24.5 | 22.2 | 12.1 | 15.2 | 11.0 | 15.6 | 25.0 | 6.8 | -65.4 | 20.6 | -12.6 | -43.9 | 6.5 | KiNativ Kinase Panel Data (MAST1, MAST2; […]): 19.6; KiNativ Kinase Panel Data (EGFR; Activation Loop, […]): -1.8; KiNativ Kinase Panel Data (KSR1, KSR2; […]): -19.2; KiNativ Kinase Panel Data (AMPKa1, AMPKa2; Lys2, […]): -6.5; KiNativ Kinase Panel Data (p38d, p38g; […]): -3.7; KiNativ Kinase Panel Data (MARK4; Lys1, […]): 7.0; KiNativ Kinase Panel Data (PKCa, PKCg; […]): -20.9; KiNativ Kinase Panel Data (ITPK1; […]): 22.4
CO[C@H]1C[C@@H]2CC[C@@H](C)[C@@](O)(O2)C(=O)C(=O)N2CCCC[C@H]2C(=O)O[C@H]([C@H](C)C[C@@H]2CC[C@@H](OC(=O)NCCOCCOCCOCCOCCOCCOCCOCCOCCC(=O)NCCS(=O)(=O)c3ccc(C(=O)N4CCOc5ccc(-c6ccc(N)nc6)cc5C4)c(C)c3F)[C@H](OC)C2)C[C@@H](O)[C@H](C)/C=C(\C)[C@@H](O)[C@@H](OC)C(=O)[C@H](C)C[C@H](C)/C=C/C=C/C=C/1C [compound 40] | -29.1 | -40.9 | -11.1 | 11.7 | -27.8 | -15.4 | -4.5 | 11.0 | 17.4 | 9.6 | -32.5 | 1.9 | -18.5 | 2.1 | -19.4 | 22.2 | -18.2 | -20.3 | -9.6 | KiNativ Kinase Panel Data (MAST1, MAST2; DLKPDNLLITSMGHIK): 22.5; KiNativ Kinase Panel Data (EGFR; Activation Loop, LLGAEEKEYHAEGGKVPIK): -40.0; KiNativ Kinase Panel Data (KSR1, KSR2; SKNVFYDNGK): -20.7; KiNativ Kinase Panel Data (AMPKa1, AMPKa2; Lys2, DLKPENVLLDAHMNAK): -1.3; KiNativ Kinase Panel Data (p38d, p38g; DLKPGNLAVNEDCELK): -28.8; KiNativ Kinase Panel Data (MARK4; Lys1, EVAIKIIDKTQLNPSSLQK): 24.2; KiNativ Kinase Panel Data (PKCa, PKCg; NLIPMDPNGLSDPYVKLK): 31.7; KiNativ Kinase Panel Data (ITPK1; NFSAGTSDRESIFFNSHNVSKPESSSVLTELDKIEGVFERPSDEVIR): -12.4
